Assays:
Beta-secretase 2 = biological target: T1, Beta-secretase 2 (Homo sapiens, UniProt Q9Y5Z0); assay: Inhibition of BACE2 expressed in human 293T cells; type: cell-based
T1 sequence (Q9Y5Z0 whole entry): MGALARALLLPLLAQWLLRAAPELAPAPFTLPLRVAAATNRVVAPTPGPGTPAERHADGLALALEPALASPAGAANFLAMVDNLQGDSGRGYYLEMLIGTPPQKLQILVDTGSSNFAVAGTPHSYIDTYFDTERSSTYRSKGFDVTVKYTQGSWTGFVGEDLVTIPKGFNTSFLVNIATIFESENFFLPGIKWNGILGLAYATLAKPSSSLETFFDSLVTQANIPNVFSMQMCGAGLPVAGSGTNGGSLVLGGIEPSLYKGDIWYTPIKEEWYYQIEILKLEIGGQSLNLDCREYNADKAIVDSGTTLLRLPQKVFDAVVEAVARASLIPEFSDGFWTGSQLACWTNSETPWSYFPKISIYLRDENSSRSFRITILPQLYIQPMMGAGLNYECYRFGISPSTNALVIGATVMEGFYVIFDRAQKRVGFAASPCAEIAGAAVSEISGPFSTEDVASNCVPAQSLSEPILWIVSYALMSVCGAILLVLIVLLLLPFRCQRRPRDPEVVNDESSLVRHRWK

Beta-secretase 1 = Beta-secretase 1 (Homo sapiens, UniProt P56817)
Description: Inhibition of BACE1 expressed in human 293T cells

N2a = assay: Reduction of amyloid beta40 level in mouse N2A cells expressing Swedish mutant human APP695 at 10 uM after 24 hrs by ELISA; type: functional; parameters: scale not given: the % may be the effect or the level left

Beta-secretase 1, sequence (P56817 whole entry): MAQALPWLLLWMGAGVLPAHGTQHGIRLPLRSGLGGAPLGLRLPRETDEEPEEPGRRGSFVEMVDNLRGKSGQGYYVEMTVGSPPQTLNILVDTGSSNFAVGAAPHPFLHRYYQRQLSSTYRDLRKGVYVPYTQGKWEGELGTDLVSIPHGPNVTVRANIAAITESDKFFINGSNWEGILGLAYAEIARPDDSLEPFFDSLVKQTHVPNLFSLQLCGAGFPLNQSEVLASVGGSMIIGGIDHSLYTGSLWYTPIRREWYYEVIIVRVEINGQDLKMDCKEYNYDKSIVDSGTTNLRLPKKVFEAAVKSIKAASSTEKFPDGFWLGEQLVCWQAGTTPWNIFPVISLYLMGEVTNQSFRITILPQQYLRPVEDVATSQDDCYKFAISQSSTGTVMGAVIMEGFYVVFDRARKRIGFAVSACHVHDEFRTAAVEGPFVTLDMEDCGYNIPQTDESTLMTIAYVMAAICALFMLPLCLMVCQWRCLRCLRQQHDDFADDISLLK

SMILES | IC50 (Beta-secretase 2) [nM] | IC50 (Beta-secretase 1) [nM] | Activity (N2a) [%]
C[C@@H](NC(=O)c1cc(C(=O)N[C@@H](Cc2ccccc2)[C@H](O)CNC2CC2)cc(N2CCCS2(=O)=O)c1)c1ccccc1 | 141 | 1770 | –
C[C@@H](NC(=O)c1cc(C(=O)N[C@@H](Cc2ccccc2)[C@H](O)CNC2CC2)cc(-c2ccc(Cl)cc2)c1)c1ccccc1 | > 100000 | 811 | –
C[C@@H](NC(=O)c1cc(C(=O)N[C@@H](Cc2ccccc2)[C@H](O)CNC2CC2)cc2c1CCCCO2)c1ccc(F)cc1 | 1950 | 262 | –
C[C@@H](NC(=O)c1cc(C(=O)N[C@@H](Cc2ccccc2)[C@H](O)CNC2CC2)cc(-c2cn(Cc3ccccc3)nn2)c1)c1ccccc1 | > 100000 | 1260 | –
C[C@@H](NC(=O)c1cc(C#Cc2ccccc2)cc(C(=O)N[C@@H](Cc2ccccc2)[C@H](O)CNC2CC2)c1)c1ccccc1 | > 100000 | 1120 | –
C[C@@H](NC(=O)c1cc(C(=O)N[C@@H](Cc2ccccc2)[C@H](O)CNC2CC2)cc2c1CCCO2)c1ccc(F)cc1 | 2090 | 740 | –
Cc1cc2c(C(=O)N[C@@H](Cc3ccccc3)[C@H](O)CNC3CC3)cc(C(=O)N[C@H](C)c3ccccc3)cc2o1 | > 100000 | 998 | –
C[C@@H](NC(=O)c1cc2c(c(C(=O)N[C@@H](Cc3ccccc3)[C@H](O)CNC3CC3)c1)CCCCO2)c1ccccc1 | > 100000 | 89 | –
C[C@@H](NC(=O)c1cc(C(=O)N[C@@H](Cc2ccccc2)[C@H](O)CNC2CC2)cc(-c2ccsc2)c1)c1ccccc1 | > 100000 | 2230 | –
C[C@@H](NC(=O)c1cc(C(=O)N[C@@H](Cc2ccccc2)[C@H](O)CNC2CC2)cc2c1CCCO2)c1ccccc1 | > 100000 | 63 | 65
C[C@@H](NC(=O)c1cc(C(=O)N[C@@H](Cc2ccccc2)[C@H](O)CNC2CC2)cc2c1CCCCO2)c1ccccc1 | > 100000 | 56 | 35
COc1cc(C(=O)N[C@@H](Cc2ccccc2)[C@H](O)CNC2CC2)cc(C(=O)N[C@H](C)c2ccccc2)c1 | > 100000 | 2510 | –
C[C@@H](NC(=O)c1cc(O)cc(C(=O)N[C@@H](Cc2ccccc2)[C@H](O)CNC2CC2)c1)c1ccccc1 | > 100000 | 1580 | –
C[C@@H](NC(=O)c1cc(C(=O)N[C@@H](Cc2ccccc2)[C@H](O)CNC2CC2)cc(N2CCCCS2(=O)=O)c1)c1ccccc1 | 251 | 158 | –
Cc1cc2c(C(=O)N[C@H](C)c3ccccc3)cc(C(=O)N[C@@H](Cc3ccccc3)[C@H](O)CNC3CC3)cc2o1 | > 100000 | 524 | –
C[C@@H](NC(=O)c1cc2c(c(C(=O)N[C@@H](Cc3ccccc3)[C@H](O)CNC3CC3)c1)CCCO2)c1ccccc1 | > 100000 | 112 | –
C#Cc1cc(C(=O)N[C@@H](Cc2ccccc2)[C@H](O)CNC2CC2)cc(C(=O)N[C@H](C)c2ccccc2)c1 | > 100000 | 889 | –

Source: ChEMBL document CHEMBL1139259, “Molecular modeling, synthesis, and activity studies of novel biaryl and fused-ring BACE1 inhibitors” (Bioorg Med Chem Lett, 2009)
